Measurements published in US20230293420A1, “COSMETIC OR DERMOPHARMACEUTICAL COMPOSITION, PEPTIDE AND USE IN THE REDUCTION AND ELIMINATION OF WRINKLES AND EXPRESSION LINES” (NANOCEUTICALS LTDA, priority 2022, published 2023).
Where a SMILES comes first, the peptide text is derived from it.

Experiments:
[1] = test system: Balb/c 3T3 clone 31 cells; experiment: In vitro study of neutral red cytotoxicity; assay type: cell-based; settings: 24 hours incubation
Experimental: Evaluate the in vitro cytotoxic potential of the Giovian peptide (SEQ ID No. 1) in culture of Balb/c 3T3 clone 31 cells.
In this study, Balb.c 3T3 clone 31 cells were used, obtained from the supplier Banco de Células do Rio de Janeiro, batch 001242, maintained in cultivation with DMEM (Dulbecco's Modified Eagle's Medium) with the addition of supplements, in an oven at 37° C. and 5% of CO2, and were manipulated inside the laminar flow hood. In passage 04 after thawing, the cells were distributed in 96-well plates maintained in culture under the same conditions described.
The solutions containing the control, positive control and sample groups were applied to the cell culture, 100 μL per well in quadruplicate for each group, followed by incubation in an oven at 37° C. and 5% CO2 for 24 hours. After washing, cell viability was analyzed with the neutral red indicator, 100 μL per well.
The results were evaluated using Microsoft Excel software. The control group was normalized to 100% and the percentage of cell viability in the sample and in the positive control was calculated in relation to the control. Samples are considered cytotoxic when they have 30% or more reduction in cell viability.

[2] = test system: myoblast cells; assay type: cell-based
[3] = Appearance of solubilized sample in cell culture medium; assay type: physicochemical; settings: 1 mg/mL in cell culture medium

Structure (SMILES): CC[C@H](C)[C@H](NC(=O)[C@H](CC(C)C)NC(=O)[C@H](CCCCN)NC(=O)CNC(=O)[C@H](CC(C)C)NC(=O)[C@H](CCCCN)NC(=O)[C@H](CC(C)C)NC(=O)[C@H](Cc1c[nH]c2ccccc12)NC(=O)[C@H](Cc1ccccc1)NC(=O)[C@@H](NC(=O)[C@H](CCCCN)NC(=O)[C@H](CCCNC(=N)N)NC(=O)[C@H](Cc1ccccc1)NC(=O)[C@@H]1CCCN1C(=O)[C@@H](NC(=O)[C@H](Cc1ccccc1)NC(=O)CNC(=O)[C@@H]1CCCN1C(=O)[C@@H]1CCCN1C(=O)[C@@H](N)CCCNC(=N)N)[C@@H](C)O)[C@@H](C)CC)C(=O)N[C@@H](CC(=O)O)C(=O)N[C@@H](C)C(=O)N[C@@H](CC(C)C)C(N)=O [Giovian] (H-RPPGFTPFRKIFWLKLGKLIDAL-NH2)
- concentrations at which the sample did not present cytotoxic effect (cytotoxic = 30% or more reduction in cell viability) [1]: lower than 0.0375 mg/ml
- cell relaxation (reduction of cell contractility, collagen disc volume) [2]: increase in cell relaxation
- appearance of solubilized sample [3]: fully solubilized
